For 1 compound, Activity results are on record in ChEMBL document CHEMBL4190297, “Cafestol, a Bioactive Substance in Coffee, Has Antidiabetic Properties in KKAy Mice” (J Nat Prod, 2017).

Molecules are shown by their SMILES. Calls of active or inactive are those of the source. No cut-off for these calls is given here.

The species entered for assay [1] is Mus musculus. Put plainly: Antidiabetic activity in KK-Ay diabetic mouse model assessed as reduction in plasma glucagon levels at 0.4 mg added daily to normal chow pellets for 10 weeks relative to control by radioimmunoassay. The class given is functional. More on the design: scale not given: the % may be the effect or the level left.
The species entered for assay [2] is Mus musculus. Put plainly: Antidiabetic activity in KK-Ay diabetic mouse model assessed as increase in INSR mRNA expression levels in liver tissue at 1.1 mg added daily to normal chow pellets for 10 weeks by qRT-PCR analysis. The class given is functional, organism-based. Background: In qPCR the cycle at which signal appears reflects the starting amount.
The species entered for assay [3] is Mus musculus. Put plainly: Effect on Adipor1 mRNA expression levels in muscle of KK-Ay diabetic mouse model at 0.4 to 1.1 mg added daily to normal chow pellets for 10 weeks by qRT-PCR analysis. The assay is classed as functional, organism-based.
The species entered for assay [4] is Mus musculus. Put plainly: Effect on 18s rRNA expression levels in muscle of KK-Ay diabetic mouse model at 0.4 to 1.1 mg added daily to normal chow pellets for 10 weeks by qRT-PCR analysis. The assay is classed as functional, organism-based.
For assay [5], the species on record is Mus musculus. The assay is described as follows: Effect on water-fat fraction in liver of KK-Ay diabetic mouse model at 0.4 to 1.1 mg added daily to normal chow pellets for 10 weeks by MR spectroscopic analysis. The assay is classed as functional, organism-based.

For the compound `C[C@@]12CCc3occc3[C@H]1CC[C@@]13C[C@H](CC[C@H]12)[C@@](O)(CO)C3`, the Activity in the assay listed under Mus musculus [1] is reported as 28%. Besides, the result in the assay filed under Mus musculus [2] was Active. The outcome in the assay filed under Mus musculus [3], in the assay filed under Mus musculus [4] and in the assay filed under Mus musculus [5] was inactive.
